In patent US20230085307A1, “PYRIDAZINONE COMPOUND AND HERBICIDE” (NISSAN CHEMICAL CORPORATION, priority 2019, published 2023):

Legend:
[1] = tested on: late watergrass; test: Test Example 1: herbicidal activity, application before weed generation under submerged conditions (Table 16, symbol A); type: in vivo, late watergrass (Echinochloa oryzicola); details: 320 g/ha applied herbicide
In short: (§1)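 Emulsion formulation, water-diluted to set dose, was put onto the flooded surface (4 cm depth, alluvial soil) the same day weeds were sown and 2.5-leaf rice transplanted. After 3 weeks at 25-30 °C under glass, each species was rated 0 (≤5% kill) to 5 (≥90% kill).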

[2] = tested on: Japanese bulrush; test: Test Example 1: herbicidal activity, application before weed generation under submerged conditions (Table 16, symbol B); type: in vivo, Japanese bulrush (Schoenoplectus juncoides); details: 320 g/ha applied herbicide
In short: as §1

[3] = tested on: oval-leafed pondweed; test: Test Example 1: herbicidal activity, application before weed generation under submerged conditions (Table 16, symbol C); type: in vivo, oval-leafed pondweed (Monochoria vaginalis); details: 320 g/ha applied herbicide
In short: as §1

[4] = tested on: barnyard grass; test: Test Example 3: herbicidal effect by foliage application, Wagner pot (Table 18, symbol H); type: in vivo, barnyard grass (Echinochloa crus-galli); details: amount of applied herbicide 320 g/ha
In short: (§2)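 Plants were sown in alluvial soil held under 0.1–0.5 cm standing water and grown 14 days in a greenhouse at 25–30 °C. An emulsifiable formulation, water-diluted to the set dose, was then sprayed onto the foliage, and effects were scored three weeks later using previously defined criteria.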

[5] = tested on: Chinese sprangletop; test: Test Example 3: herbicidal effect by foliage application, Wagner pot (Table 18, symbol D); type: in vivo, chinese sprangletop (Leptochloa chinensis); details: amount of applied herbicide 320 g/ha
In short: as §2

[6] = tested on: rice flat sedge; test: Test Example 3: herbicidal effect by foliage application, Wagner pot (Table 18, symbol E); type: in vivo, rice flat sedge (Cyperus iria); details: amount of applied herbicide 320 g/ha
In short: as §2

[7] = tested on: southern crabgrass; test: Test Example 4: herbicidal effect by soil treatment (Table 19, symbol F); type: in vivo, southern crabgrass (Digitaria ciliaris); details: amount of applied herbicide 320 g/ha
In short: (§3)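 Step 1: sow seeds in sterilized diluvial soil, cover ~1.5 cm. Step 2: spray diluted emulsion onto soil surface at predetermined rate. Step 3: greenhouse, 25–30° C, three weeks. Step 4: grade effect on each plant by earlier criteria.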

[8] = tested on: green foxtail; test: Test Example 4: herbicidal effect by soil treatment (Table 19, symbol G); type: in vivo, green foxtail (Setaria viridis); details: amount of applied herbicide 320 g/ha
In short: as §3

[9] = tested on: barnyard grass; test: Test Example 4: herbicidal effect by soil treatment (Table 19, symbol H); type: in vivo, barnyard grass (Echinochloa crus-galli); details: amount of applied herbicide 320 g/ha
In short: as §3

[10] = tested on: wild oat; test: Test Example 4: herbicidal effect by soil treatment (Table 19, symbol I); type: in vivo, wild oat (Avena fatua); details: amount of applied herbicide 320 g/ha
In short: as §3

[11] = tested on: blackgrass; test: Test Example 4: herbicidal effect by soil treatment (Table 19, symbol J); type: in vivo, blackgrass (Alopecurus myosuroides); details: amount of applied herbicide 320 g/ha
In short: as §3

[12] = tested on: Italian ryegrass; test: Test Example 4: herbicidal effect by soil treatment (Table 19, symbol K); type: in vivo, Italian ryegrass (Lolium multiflorum); details: amount of applied herbicide 320 g/ha
In short: as §3

[13] = tested on: windgrass; test: Test Example 4: herbicidal effect by soil treatment (Table 19, symbol L); type: in vivo, windgrass (Apera spica-venti); details: amount of applied herbicide 320 g/ha
In short: as §3

[14] = tested on: velvetleaf; test: Test Example 4: herbicidal effect by soil treatment (Table 19, symbol M); type: in vivo, velvetleaf (Abutilon theophrasti); details: amount of applied herbicide 320 g/ha
In short: as §3

[15] = tested on: redroot pigweed; test: Test Example 4: herbicidal effect by soil treatment (Table 19, symbol N); type: in vivo, redroot pigweed (Amaranthus retroflexus); details: amount of applied herbicide 320 g/ha
In short: as §3

[16] = tested on: lambsquarters; test: Test Example 4: herbicidal effect by soil treatment (Table 19, symbol O); type: in vivo, lambsquarters (Chenopodium album); details: amount of applied herbicide 320 g/ha
In short: as §3

[17] = tested on: chickweed; test: Test Example 4: herbicidal effect by soil treatment (Table 19, symbol P); type: in vivo, common chickweed (Stellaria media); details: amount of applied herbicide 320 g/ha
In short: as §3

[18] = tested on: persian speedwell; test: Test Example 4: herbicidal effect by soil treatment (Table 19, symbol R); type: in vivo, Persian speedwell (Veronica persica); details: amount of applied herbicide 320 g/ha
In short: as §3

[19] = tested on: southern crabgrass; test: Test Example 5: herbicidal effect by foliage application, plastic box (Table 20, symbol F); type: in vivo, southern crabgrass (Digitaria ciliaris); details: foliage application, evaluated three weeks after application
In short: (§4)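 Foliar spray test: emulsion formulation diluted in water to a set application rate, sprayed onto 14-day-old plants raised in diluvial soil at 25° C to 30° C under glass. Both herbicidal effect and crop effect rated visually three weeks later.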

[20] = tested on: green foxtail; test: Test Example 5: herbicidal effect by foliage application, plastic box (Table 20, symbol G); type: in vivo, green foxtail (Setaria viridis); details: foliage application, evaluated three weeks after application
In short: as §4

[21] = tested on: barnyard grass; test: Test Example 5: herbicidal effect by foliage application, plastic box (Table 20, symbol H); type: in vivo, barnyard grass (Echinochloa crus-galli); details: foliage application, evaluated three weeks after application
In short: as §4

[22] = tested on: wild oat; test: Test Example 5: herbicidal effect by foliage application, plastic box (Table 20, symbol I); type: in vivo, wild oat (Avena fatua); details: foliage application, evaluated three weeks after application
In short: as §4

[23] = tested on: blackgrass; test: Test Example 5: herbicidal effect by foliage application, plastic box (Table 20, symbol J); type: in vivo, blackgrass (Alopecurus myosuroides); details: foliage application, evaluated three weeks after application
In short: as §4

[24] = tested on: Italian ryegrass; test: Test Example 5: herbicidal effect by foliage application, plastic box (Table 20, symbol K); type: in vivo, Italian ryegrass (Lolium multiflorum); details: foliage application, evaluated three weeks after application
In short: as §4

[25] = tested on: velvetleaf; test: Test Example 5: herbicidal effect by foliage application, plastic box (Table 20, symbol M); type: in vivo, velvetleaf (Abutilon theophrasti); details: foliage application, evaluated three weeks after application
In short: as §4

[26] = tested on: redroot pigweed; test: Test Example 5: herbicidal effect by foliage application, plastic box (Table 20, symbol N); type: in vivo, redroot pigweed (Amaranthus retroflexus); details: foliage application, evaluated three weeks after application
In short: as §4

[27] = tested on: lambsquarters; test: Test Example 5: herbicidal effect by foliage application, plastic box (Table 20, symbol O); type: in vivo, lambsquarters (Chenopodium album); details: foliage application, evaluated three weeks after application
In short: as §4

[28] = tested on: chickweed; test: Test Example 5: herbicidal effect by foliage application, plastic box (Table 20, symbol P); type: in vivo, common chickweed (Stellaria media); details: foliage application, evaluated three weeks after application
In short: as §4

[29] = tested on: persian speedwell; test: Test Example 5: herbicidal effect by foliage application, plastic box (Table 20, symbol R); type: in vivo, Persian speedwell (Veronica persica); details: foliage application, evaluated three weeks after application
In short: as §4

Cc1nn(C)c(=O)c(-c2c(-c3ccc(C(C)(C)C)cc3)sc3ccc(F)cc23)c1O [2-208]
Herbicidal effect on A: late watergrass (grade 0-5) [1]: 0 (Herbicidal rate of 5% or less (almost no effect)) | Herbicidal effect on B: Japanese bulrush (grade 0-5) [2]: 2 (Herbicidal rate of 20% or more and less than 40%) | Herbicidal effect on C: oval-leafed pondweed (grade 0-5) [3]: 0 (Herbicidal rate of 5% or less (almost no effect)) | herbicidal effect on H: barnyard grass [4]: 5 (Herbicidal rate of 90% or more (almost completely withered)) | herbicidal effect on D: Chinese sprangletop [5]: 5 (Herbicidal rate of 90% or more (almost completely withered)) | herbicidal effect on E: rice flat sedge [6]: 5 (Herbicidal rate of 90% or more (almost completely withered)) | F: southern crabgrass, herbicidal effect rating [7]: 3 (Herbicidal rate of 40% or more and less than 70%) | G: green foxtail, herbicidal effect rating [8]: 0 (Herbicidal rate of 5% or less (almost no effect)) | H: barnyard grass, herbicidal effect rating [9]: 0 (Herbicidal rate of 5% or less (almost no effect)) | I: wild oat, herbicidal effect rating [10]: 0 (Herbicidal rate of 5% or less (almost no effect)) | J: blackgrass, herbicidal effect rating [11]: 0 (Herbicidal rate of 5% or less (almost no effect)) | K: Italian ryegrass, herbicidal effect rating [12]: 0 (Herbicidal rate of 5% or less (almost no effect)) | L: windgrass, herbicidal effect rating [13]: 0 (Herbicidal rate of 5% or less (almost no effect)) | M: velvetleaf, herbicidal effect rating [14]: 1 (Herbicidal rate of 5% or more and less than 20%) | N: redroot pigweed, herbicidal effect rating [15]: 0 (Herbicidal rate of 5% or less (almost no effect)) | O: lambsquarters, herbicidal effect rating [16]: 2 (Herbicidal rate of 20% or more and less than 40%) | P: chickweed, herbicidal effect rating [17]: 0 (Herbicidal rate of 5% or less (almost no effect)) | R: persian speedwell, herbicidal effect rating [18]: 0 (Herbicidal rate of 5% or less (almost no effect)) | herbicidal effect on F: southern crabgrass (criteria 0-5) ([19]; 320 g/ha): 3 (Herbicidal rate of 40% or more and less than 70%) | herbicidal effect on G: green foxtail (criteria 0-5) ([20]; 320 g/ha): 2 (Herbicidal rate of 20% or more and less than 40%) | herbicidal effect on H: barnyard grass (criteria 0-5) ([21]; 320 g/ha): 5 (Herbicidal rate of 90% or more (almost completely withered)) | herbicidal effect on I: wild oat (criteria 0-5) ([22]; 320 g/ha): 0 (Herbicidal rate of 5% or less (almost no effect)) | herbicidal effect on J: blackgrass (criteria 0-5) ([23]; 320 g/ha): 0 (Herbicidal rate of 5% or less (almost no effect)) | herbicidal effect on K: Italian ryegrass (criteria 0-5) ([24]; 320 g/ha): 0 (Herbicidal rate of 5% or less (almost no effect)) | herbicidal effect on M: velvetleaf (criteria 0-5) ([25]; 320 g/ha): 2 (Herbicidal rate of 20% or more and less than 40%) | herbicidal effect on N: redroot pigweed (criteria 0-5) ([26]; 320 g/ha): 3 (Herbicidal rate of 40% or more and less than 70%) | herbicidal effect on O: lambsquarters (criteria 0-5) ([27]; 320 g/ha): 0 (Herbicidal rate of 5% or less (almost no effect)) | herbicidal effect on P: chickweed (criteria 0-5) ([28]; 320 g/ha): 5 (Herbicidal rate of 90% or more (almost completely withered)) | herbicidal effect on R: persian speedwell (criteria 0-5) ([29]; 320 g/ha): 5 (Herbicidal rate of 90% or more (almost completely withered))

Cc1nn(C)c(=O)c(-c2c(-c3ccc(OC(F)F)cc3)sc3ccc(F)cc23)c1OS(=O)(=O)N(C)C [2-310]
Herbicidal effect on A: late watergrass (grade 0-5) [1]: 0 (Herbicidal rate of 5% or less (almost no effect)) | Herbicidal effect on B: Japanese bulrush (grade 0-5) [2]: 2 (Herbicidal rate of 20% or more and less than 40%) | Herbicidal effect on C: oval-leafed pondweed (grade 0-5) [3]: 0 (Herbicidal rate of 5% or less (almost no effect)) | herbicidal effect on H: barnyard grass [4]: 5 (Herbicidal rate of 90% or more (almost completely withered)) | herbicidal effect on D: Chinese sprangletop [5]: 4 (Herbicidal rate of 70% or more and less than 90%) | herbicidal effect on E: rice flat sedge [6]: 3 (Herbicidal rate of 40% or more and less than 70%) | herbicidal effect on F: southern crabgrass [7]: 0 (Herbicidal rate of 5% or less (almost no effect)) | herbicidal effect on G: green foxtail [8]: 0 (Herbicidal rate of 5% or less (almost no effect)) | herbicidal effect on H: barnyard grass [9]: 0 (Herbicidal rate of 5% or less (almost no effect)) | herbicidal effect on I: wild oat [10]: 0 (Herbicidal rate of 5% or less (almost no effect)) | herbicidal effect on J: blackgrass [11]: 0 (Herbicidal rate of 5% or less (almost no effect)) | herbicidal effect on K: Italian ryegrass [12]: 0 (Herbicidal rate of 5% or less (almost no effect)) | herbicidal effect on L: windgrass [13]: 0 (Herbicidal rate of 5% or less (almost no effect)) | herbicidal effect on M: velvetleaf [14]: 0 (Herbicidal rate of 5% or less (almost no effect)) | herbicidal effect on N: redroot pigweed [15]: 0 (Herbicidal rate of 5% or less (almost no effect)) | herbicidal effect on O: lambsquarters [16]: 0 (Herbicidal rate of 5% or less (almost no effect)) | herbicidal effect on P: chickweed [17]: 3 (Herbicidal rate of 40% or more and less than 70%) | herbicidal effect on R: persian speedwell [18]: 4 (Herbicidal rate of 70% or more and less than 90%) | F: southern crabgrass, herbicidal effect (criteria 0-5) ([19]; AAH 320 g/ha): 0 (Herbicidal rate of 5% or less (almost no effect)) | G: green foxtail, herbicidal effect (criteria 0-5) ([20]; AAH 320 g/ha): 5 (Herbicidal rate of 90% or more (almost completely withered)) | H: barnyard grass, herbicidal effect (criteria 0-5) ([21]; AAH 320 g/ha): 5 (Herbicidal rate of 90% or more (almost completely withered)) | I: wild oat, herbicidal effect (criteria 0-5) ([22]; AAH 320 g/ha): 0 (Herbicidal rate of 5% or less (almost no effect)) | J: blackgrass, herbicidal effect (criteria 0-5) ([23]; AAH 320 g/ha): 0 (Herbicidal rate of 5% or less (almost no effect)) | K: Italian ryegrass, herbicidal effect (criteria 0-5) ([24]; AAH 320 g/ha): 0 (Herbicidal rate of 5% or less (almost no effect)) | M: velvetleaf, herbicidal effect (criteria 0-5) ([25]; AAH 320 g/ha): 5 (Herbicidal rate of 90% or more (almost completely withered)) | N: redroot pigweed, herbicidal effect (criteria 0-5) ([26]; AAH 320 g/ha): 5 (Herbicidal rate of 90% or more (almost completely withered)) | O: lambsquarters, herbicidal effect (criteria 0-5) ([27]; AAH 320 g/ha): 5 (Herbicidal rate of 90% or more (almost completely withered)) | P: chickweed, herbicidal effect (criteria 0-5) ([28]; AAH 320 g/ha): 5 (Herbicidal rate of 90% or more (almost completely withered)) | R: persian speedwell, herbicidal effect (criteria 0-5) ([29]; AAH 320 g/ha): 5 (Herbicidal rate of 90% or more (almost completely withered))
